Measured values: US8809314B1, “Cephalosporin compound” (Cubist Pharmaceuticals, Inc., priority 2012, dated 2014)
Values after ≈ are worked out from the molar mass of the structure shown.

Key:
[1] = system: Pa44 (WT Pa); test: MIC, broth microdilution (Example 3), Table 1; type: cell-based; conditions: Pseudomonas aeruginosa, CAMHB
Procedure: (§1) To prepare for MIC testing, individual colonies were isolated by streaking frozen glycerol material containing Staphylococcus or Pseudomonas spp. onto rich, non-selective, tryptic soy agar containing 5% sheep's blood (TSAB), and incubated at 37° C. for 18-24 hrs.
(§2) On the day of testing, primary cultures were started by scraping off 5-10 colonies from the TSAB plates. The material was suspended in ˜5 mL of cation adjusted Mueller Hinton Broth (CAMHB) in 14 mL culture tubes and incubated at 37° C. with aeration (200 rpm) for ˜2 hrs until the OD600 was ≧0.1.
(§3) Inoculum cultures were prepared by standardizing the primary cultures to OD600=0.1 and then adding 20 μL of the adjusted primary culture per 1 mL CAMHB for Pseudomonas and CAMHB plus 4% NaCl for MRSA so that the final inoculum density was ˜10^5 colony forming units per milliliter. Diluted inoculum cultures were used to inoculate 50 μL per well in 96 well broth microdilution assay plates. 50 μL of CAMHB that contained compound concentrations ranging from 64-0.06 μg/mL in two-fold dilutions was also added to the broth microdilution assay plates for a final volume 100 μL per well, therefore final culture OD600 was approximately 0.001 and the final NaCl concentration for the MRSA strain was 2%.
(§4) Plates were incubated for 18-20 hours at 37° C. with aeration (200 rpm). Following incubation, growth was confirmed visually placing plates over a viewing apparatus (stand with a mirror underneath) and then OD600 was measured using a SpectraMax 340PC384 plate reader (Molecular Devices, Sunnyvale, Calif.). Growth was defined as turbidity that could be detected with the naked eye or achieving minimum OD600 of 0.1. MIC values were defined as the lowest concentration producing no visible turbidity.

[2] = system: Sa399 (MRSA); test: MIC, broth microdilution (Example 3), Table 1; type: cell-based; conditions: Staphylococcus aureus, CAMHB, final 2% NaCl
Procedure: as §1, §2, §3, §4

| MIC [1] [µg/mL] | MIC [2] [µg/mL] | SMILES |
| --- | --- | --- |
| ≤ 4 | 8 to 16 (≈ 15.5 to 31.1 µM) | CO/N=C(\C(=O)N[C@@H]1C(=O)N2C(C(=O)[O-])=C(C[n+]3cccc4c3CCC4)CS[C@H]12)c1csc(N)n1 [Cefpirome] |
| > 16 | ≤ 4 | CO/N=C(\C(=O)N[C@@H]1C(=O)N2C(C(=O)[O-])=C(C[n+]3ccc(CNC(=O)c4ccccc4)cc3)CS[C@H]12)c1nc(N)sc1Cl [Compound 1-2] |
| ≤ 4 | > 16 | CO/N=C(\C(=O)N[C@@H]1C(=O)N2C(C(=O)[O-])=C(C[n+]3ccc(CN)cc3)CS[C@H]12)c1csc(N)n1 [Compound 1-1] |
| > 16 | 8 to 16 (≈ 10.2 to 20.5 µM) | CO/N=C(\C(=O)N[C@@H]1C(=O)N2C(C(=O)[O-])=C(C[n+]3ccc(CNC(=O)c4cccc(CCNC(=O)C(F)(F)F)c4)cc3)CS[C@H]12)c1nc(N)sc1Cl [Compound 1-4] |
| ≤ 4 | > 16 | CO/N=C(\C(=O)N[C@@H]1C(=O)N2C(C(=O)[O-])=C(C[N+]3(C)CCCC3)CS[C@H]12)c1csc(N)n1 [Cefepime] |
